Like-named read-outs stand apart in the source and are kept apart here.
What was measured:
[1] = Unbound fraction in brain (fu,brain), brain homogenate method; details: Kb from literature fu,brain
Excerpt: However, Kp,uu,brain can be derived from Kp,brain by combining the unbound fraction of the drug in the plasma (fu,p) and in the brain (fu,brain) or the unbound brain volume of distribution, Vu,brain [7]. […] The relevant equations are included in Section 3. Evidently, fu,p is obtained by standard methods for plasma protein binding.
Experimentally determined Kp,brain values for 42 compounds were obtained from the literature and were converted to logBB. They preferably referred to rat studies in order to achieve homogeneity in the data. Experimental fu,brain values were available from the literature for 39 compounds in the dataset. When more than one value was available, the average was calculated. Most values were determined on rats.
The decimal logarithm of Kb, logKb, was used for the development of the models.

[2] = set-up: method as in ref 23, 24, 27, 29, 45 (a number printed in a supplementary file, which may have a reference list of its own: not looked up in the article's list); details: 100% aqueous mobile phase, previously obtained in authors' laboratory, cited from earlier work
human serum albumin = test system: human serum albumin; set-up: method as in ref 45 (a number printed in a supplementary file, which may have a reference list of its own: not looked up in the article's list); details: cited from earlier work
[3] = cited from earlier work
[4] = most values in rats, average if more than one value; cited from earlier work
α1 acid glycoprotein = test system: α1 acid glycoprotein; set-up: method as in ref 23, 24, 27, 29, 45 (a number printed in a supplementary file, which may have a reference list of its own: not looked up in the article's list); details: pH=7.4, 100% aqueous mobile phase; previously obtained in authors' laboratory; cited from earlier work
[5] = cited from earlier work; for logBB exper.: literature Kp,brain converted to logBB; for Kp,brain: total brain/total plasma, preferably rat studies
[6] = brain slice method; cited from earlier work
[7] = rat brain tissue; cited from earlier work
[8] = pH=7.4, isocratic, 10% acetonitrile, available for 37 compounds, remaining calculated by equation
[9] = octanol-water partition coefficient, experimental
[10] = pH=5.0, octanol-water, experimental
[11] = pH=7.4, octanol-water, experimental

| Compound | logKb exper. [1] | logkw IAM ([2]; pH=5.0, PBS) | logkw IAM ([2]; pH=7.4, PBS) | logk10,HSA (human serum albumin; [8]) | logP [3, 9] | logD [3, 10] | logD [3, 11] | fu,brain [4] | logkwAGP (α1 acid glycoprotein) | logBB exper. [5] | Kp,brain [5] | Vu,brain [6] [mL/g brain] | Kp,uu,brain [7] | logk10,HSA (human serum albumin) | logP [3] |
| --- | --- | --- | --- | --- | --- | --- | --- | --- | --- | --- | --- | --- | --- | --- | --- |
| CCCC(C)(COC(N)=O)COC(N)=O [Meprobamate] | 0.245 | 0.54 | 0.72 | -0.36 | 0.70 | 1.07 | 0.70 | 0.638 | – | – | – | – | – | – | – |
| CN(C)CCC=C1c2ccccc2CCc2ccccc21 [Amitriptyline] | – | 2.06 | 2.99 | 0.89 | – | 1.13 | 2.50 | 0.010 | 2.40 | 0.98 | 9.55 | 310.00 | – | – | – |
| C=CCOc1ccccc1OCC(O)CNC(C)C (centres unmarked) [Oxprenolol] | – | 0.87 | 1.47 | -0.25 | – | -0.61 | 0.32 | 0.280 | – | 0.025 | 1.06 | 11.80 | – | – | – |
| O=C1NC(=O)C(c2ccccc2)(c2ccccc2)N1 [Phenytoin] | – | 1.94 | 1.75 | 0.44 | 2.24 | 1.95 | 2.17 | 0.121 | 1.60 | -0.04 | 0.91 | – | 0.45 | – | – |
| CN(C)C(=N)N=C(N)N [Metformin] | 1.270 | – | -0.37 | – | – | – | – | – | – | – | – | 10.00 | – | – | – |
| CC(=O)Nc1ccc(O)cc1 [Acetaminophen] | 0.692 | -0.06 | 0.18 | -0.56 | – | – | – | – | 0.10 | -0.31 | 0.49 | – | 0.18 | – | – |
| Cc1ncc2n1-c1ccc(Cl)cc1C(c1ccccc1F)=NC2 [Midazolam] | – | 1.93 | 2.77 | 0.99 | – | 1.95 | 3.27 | 0.026 | – | 0.36 | 2.29 | 29.00 | 2.19 | – | – |
| CC(C)NCC(O)COc1cccc2ccccc12 (centres unmarked) [Propranolol] | – | 1.63 | 2.33 | 0.48 | – | – | – | 0.025 | 2.20 | 0.64 | 4.37 | 112.00 | – | – | – |
| CCn1cc(C(=O)O)c(=O)c2cc(F)c(N3CCNCC3)cc21 [Norfloxacin] | 0.139 | – | – | -0.92 | -1.03 | -1.17 | -1.03 | 0.580 | – | -1.15 | 0.07 | 2.90 | 0.05 | – | – |
| O=C(O)c1ccccc1O [Salicylic acid] | 0.230 | 0.46 | -0.08 | – | – | – | – | 0.630 | – | – | – | 1.00 | – | – | – |
| CSc1ccc2c(c1)N(CCC1CCCCN1C)c1ccccc1S2 (centres unmarked) [Thioridazine] | – | – | – | 1.59 | 5.90 | 3.06 | 3.34 | 0.001 | – | 0.24 | 1.74 | 3333.00 | – | – | – |
| COc1ccc2c(c1)c(CC(=O)O)c(C)n2C(=O)c1ccc(Cl)cc1 [Indomethacin] | – | 2.93 | 2.41 | – | – | 2.95 | – | 0.042 | 1.59 | -1.26 | 0.05 | 14.00 | – | 1.76 | – |
| CN(C)C(=O)Oc1cccc([N+](C)(C)C)c1 [Neostigmine] | 1.270 | -0.08 | 0.37 | -1.91 | -2.16 | -2.16 | -2.16 | 0.950 | – | – | – | 3.20 | – | – | – |
| CNC(=C[N+](=O)[O-])NCCSCc1ccc(CN(C)C)o1 [Ranitidine] | 1.317 | – | 0.61 | -0.41 | – | -3.37 | -0.53 | – | – | -1.23 | 0.06 | – | – | – | 1.28 |

From PMC9227077, “Prediction Models for Brain Distribution of Drugs Based on Biomimetic Chromatographic Data” (Molecules, 2022)
